Data on nine compounds can be found in US20130079383A1, “Lipid Compounds Targeting VLA-4” (ARROWHEAD RESEARCH CORPORATION, priority 2011, published 2013).

Structures can show the parent of a compound that is named as a salt.

The target of the first assay is T1, VLA-4 (Homo sapiens, UniProt P05556+P13612).
T1 construct: Jurkat cells express high levels of VLA-4 on their membrane surface; host or cells: Jurkat Clone E6-1
T1 sequence (P13612 34-1032): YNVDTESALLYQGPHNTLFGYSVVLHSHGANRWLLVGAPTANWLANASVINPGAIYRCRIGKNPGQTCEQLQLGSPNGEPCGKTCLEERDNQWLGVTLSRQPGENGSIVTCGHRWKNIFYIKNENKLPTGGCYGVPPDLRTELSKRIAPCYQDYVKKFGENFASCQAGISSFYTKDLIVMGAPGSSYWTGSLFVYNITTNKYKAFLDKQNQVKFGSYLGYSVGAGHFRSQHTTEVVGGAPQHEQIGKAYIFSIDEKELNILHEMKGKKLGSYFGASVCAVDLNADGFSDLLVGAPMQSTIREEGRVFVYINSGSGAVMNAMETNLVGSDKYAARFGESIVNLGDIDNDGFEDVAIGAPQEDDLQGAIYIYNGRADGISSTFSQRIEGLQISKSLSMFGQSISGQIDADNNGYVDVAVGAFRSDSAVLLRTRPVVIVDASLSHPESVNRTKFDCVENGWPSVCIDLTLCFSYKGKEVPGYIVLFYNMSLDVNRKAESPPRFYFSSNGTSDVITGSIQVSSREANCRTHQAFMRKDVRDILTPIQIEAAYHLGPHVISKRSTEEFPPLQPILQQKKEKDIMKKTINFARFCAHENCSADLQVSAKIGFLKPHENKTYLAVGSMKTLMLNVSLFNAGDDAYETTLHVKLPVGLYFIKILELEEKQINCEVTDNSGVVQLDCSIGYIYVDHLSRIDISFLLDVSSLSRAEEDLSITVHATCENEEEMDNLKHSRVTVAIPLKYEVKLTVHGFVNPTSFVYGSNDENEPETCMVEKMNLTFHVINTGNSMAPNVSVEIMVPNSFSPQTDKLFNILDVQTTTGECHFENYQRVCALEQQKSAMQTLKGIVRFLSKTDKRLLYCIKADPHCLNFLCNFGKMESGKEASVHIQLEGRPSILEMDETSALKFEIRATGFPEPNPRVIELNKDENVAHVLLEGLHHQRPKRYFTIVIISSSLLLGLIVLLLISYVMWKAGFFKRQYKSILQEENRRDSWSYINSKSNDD
T1 sequence (P05556 21-798): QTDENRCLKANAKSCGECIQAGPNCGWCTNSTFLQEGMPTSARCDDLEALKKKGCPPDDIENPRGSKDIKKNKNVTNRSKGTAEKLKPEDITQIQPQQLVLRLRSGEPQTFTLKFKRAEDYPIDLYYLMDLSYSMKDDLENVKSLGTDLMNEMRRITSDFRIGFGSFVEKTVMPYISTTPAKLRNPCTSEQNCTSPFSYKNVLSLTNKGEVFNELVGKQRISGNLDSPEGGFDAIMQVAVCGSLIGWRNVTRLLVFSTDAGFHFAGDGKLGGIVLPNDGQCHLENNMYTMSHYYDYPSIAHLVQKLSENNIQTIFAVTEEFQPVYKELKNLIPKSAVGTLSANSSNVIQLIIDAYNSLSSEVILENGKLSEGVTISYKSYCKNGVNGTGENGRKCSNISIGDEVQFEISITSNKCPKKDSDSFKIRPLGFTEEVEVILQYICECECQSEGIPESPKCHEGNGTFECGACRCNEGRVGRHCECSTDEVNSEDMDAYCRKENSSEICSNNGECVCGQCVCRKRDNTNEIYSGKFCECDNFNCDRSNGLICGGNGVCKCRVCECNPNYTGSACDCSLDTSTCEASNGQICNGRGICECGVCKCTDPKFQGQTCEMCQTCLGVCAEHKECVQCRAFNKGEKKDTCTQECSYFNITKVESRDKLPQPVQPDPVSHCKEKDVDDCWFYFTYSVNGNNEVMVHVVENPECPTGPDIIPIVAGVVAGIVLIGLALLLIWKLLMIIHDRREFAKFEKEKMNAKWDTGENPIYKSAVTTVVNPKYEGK
Kind of assay: VLA-4/VCAM binding (adhesion) assay in Jurkat cells. Type of assay: cell-based. To be noted: Jurkat cells activated with 0.5 mM Mn2+, VCAM-1-coated plates, 45 min at 37° C. On the procedure: The following adhesion assay has been reported previously and used in this invention with minor modification. See U.S. Pat. Nos. 6,229,011 and 6,380,387 both of which are incorparated herein by reference in their entirety. […] Each assay was conducted in a 96-well plate with VCAM-1 used as the counter ligand for the cells (i.e., VCAM-1 was bound to the surface of the wells). More specifically, 96-well high-binding F96 Maxisorp immuno microtiter plates (Nunc) were coated overnight with 25 ng/well of VCAM-1. On the day of the experiment, plates were blocked for 1 h with PBS buffer containing 1% nonfat dry milk to eliminate nonspecific binding. The plates were then washed with DPBS (Dulbecco's Phosphate Buffered Saline) and blotted dry. Any excess liquid was carefully aspirated from the wells. As a control, the small molecule antagonist (27) for inhibiting VLA-4 referred to above was added to control wells in buffer containing 4% DMSO and diluted down the plate, typically in a concentration range of 1000 nM to 0.2 nM. Jurkat Clone E6-1 cells (ATCC) were labeled with 100 μg/mL 6-carboxyfluorescein diacetate, a fluorescent dye, and then activated with RPMI 1640 medium containing 0.5 mM of the divalent cation Mn^2+ and 0.05% bovine serum albumin. It is noted that this activation is needed to achieve maximal binding for the ligand and may simulate the activation of integrins by cytokines and chemokines in vivo. […] To assess VLA-4 inhibition of the VLA-4 targeting lipids (from the examples), Jurkat cells (expressing high levels of VLA-4) were added to the VCAM-1-coated plates to a final concentration of 2×10^5 cells/well in 96-well plates and allowed to incubate with the test lipids (from the examples) for 45 min at 37° C. After removing unbound cells by gently washing the wells with PBS, the fluorescence signal from the bound cells was read on a Tecan Safire2 microplate reader at 450 nm. Points were plotted and the IC50s of each lipid were determined by regression analysis using the linear portion of the concentration-response curve.
In general, IC50 refers to the point on the concentration scale where inhibition reaches its midpoint. `CCCCCCCCCCCCOCC(C[N+](C)(C)CCCNC(=O)CCOCCOCCOCCOCCOCCOCCOCCOCCOCCC(=O)NCCC1(C(=O)N[C@@H](Cc2ccc(NC(=O)c3c(Cl)cccc3Cl)cc2)C(=O)O)CCCC1)OCCCCCCCCCCCC` (stereo partly drawn) [Example 1, [2,3-bis(dodecyloxy)propyl][3-[[3-[2-[2-[2-[2-[2-[2-[2-[2-[[3-[[2-[1-[[[(S)-1-carboxy-2-[4-(2,6-dichloro-benzoylamino)phenyl]ethyl]amino]carbonyl]cyclopentyl]ethyl]amino]-3-oxopropyl]oxy]ethoxy]ethoxy]ethoxy]ethoxy]ethoxy]ethoxy]ethoxy]ethoxy]-1-oxopropyl]amino]propyl]dimethylaminium trifluoroacetate] displayed an IC50 of 0.587 µM.

With `CCCCCCCCCCCCOCC(C[N+](C)(C)CCCNC(=O)CCC(=O)NCCOCCOCCOCCOCCOCCOCCOCCOCCOCCOCCOCCOCCC(=O)NCCC1(C(=O)N[C@@H](Cc2ccc(NC(=O)c3c(Cl)cccc3Cl)cc2)C(=O)O)CCCC1)OCCCCCCCCCCCC` (stereo partly drawn) [Example 2, [2,3-bis(dodecyloxy)propyl][3-[[4-[[2-[2-[2-[2-[2-[2-[2-[2-[2-[2-[2-[2-[[3-[[2-[1-[[[(S)-1-carboxy-2-[4-(2,6-dichloro-benzoylamino)phenyl]ethyl]amino]carbonyl]cyclopentyl]ethyl]amino]-3-oxopropyl]oxy]ethoxy]ethoxy]ethoxy]ethoxy]ethoxy]ethoxy]ethoxy]ethoxy]ethoxy]ethoxy]ethoxy]ethyl]amino]-1-4-dioxobutyl]amino]propyl]dimethylaminium trifluoroacetate], the concentration for half-maximal inhibition (IC50) worked out at 0.942 µM.

In the case of `CCCCCCCCCCCCCCCCOCC(C[N+](C)(C)CCCNC(=O)CCOCCOCCOCCOCCOCCOCCOCCOCCOCCC(=O)NCCC1(C(=O)N[C@@H](Cc2ccc(NC(=O)c3c(Cl)cccc3Cl)cc2)C(=O)O)CCCC1)OCCCCCCCCCCCCCCCC` (stereo partly drawn) [Example 3, [[2,3-bis(hexadecyloxy)propyl][3-[[3-[2-[2-[2-[2-[2-[2-[2-[2-[[3-[[2-[1-[[[(S)-1-carboxy-2-[4-(2,6-dichloro-benzoylamino)phenyl]ethyl]amino]carbonyl]cyclopentyl]ethyl]amino]-3-oxopropyl]oxy]ethoxy]ethoxy]ethoxy]ethoxy]ethoxy]ethoxy]ethoxy]ethoxy]-1-oxopropyl]amino]propyl]dimethylaminium trifluoroacetate], the IC50 is 1 µM.

The compound `CCCCCCCCCCCCCCCCOCC(C[N+](C)(C)CCCNC(=O)CCC(=O)NCCOCCOCCOCCOCCOCCOCCOCCOCCOCCOCCOCCOCCC(=O)NCCC1(C(=O)NC(Cc2ccc(NC(=O)c3c(Cl)cccc3Cl)cc2)C(=O)O)CCCC1)OCCCCCCCCCCCCCCCC` [Example 4, [2,3-bis(hexadecyloxy)propyl][3-[[4-[[2-2-[2-[2-[2-[2-[2-[2-[2-[2-[2-[2-[[3-[[2-[1-[[[(S)-1-carboxy-2-[4-(2,6-dichloro-benzoylamino)phenyl]ethyl]amino]carbonyl]cyclopentyl]ethyl]amino]-3-oxopropyl]oxy]ethoxy]ethoxy]ethoxy]ethoxy]ethoxy]ethoxy]ethoxy]ethoxy]ethoxy]ethoxy]ethoxy]ethyl]amino]-1,4-dioxobutyl]amino]propyl]dimethylaminium trifluoroacetate] had an IC50 of 0.308 µM.

`CCCCCCCCCCCCCCCCOCC(CN(C)CCCNC(=O)CCC(=O)NCCOCCOCCOCCOCCOCCOCCOCCOCCOCCOCCOCCOCCC(=O)NCCC1(C(=O)N[C@@H](Cc2ccc(NC(=O)c3c(Cl)cccc3Cl)cc2)C(=O)O)CCCC1)OCCCCCCCCCCCCCCCC` (stereo partly drawn) [Example 5, (S)-Alpha-[[[1-[2-[[3-[2-[2-[2-[2-[2-[2-[2-[2-[2-[2-[2-[2-[[4-[[3-[[2,3-bis(hexadecyloxy)propyl]methylamino]propyl]amino]-1,4-dioxobutyl]amino]ethoxy]ethoxy]ethoxy]ethoxy]ethoxy]ethoxy]ethoxy]ethoxy]ethoxy]ethoxy]ethoxy]ethoxy]-1-oxoproyl]amino]ethyl]cyclopentyl]carbonyl]amino]-4-(2,6-dichlorobenzoylamino) benzenepropanoic acid] yielded an IC50 of 0.006 µM.

In the case of `CCCCCCCCCCCCCCCCCCOCC(C[N+](C)(C)CCCNC(=O)CCOCCOCCOCCOCCOCCOCCOCCOCCOCCC(=O)NCCC1(C(=O)N[C@@H](Cc2ccc(NC(=O)c3c(Cl)cccc3Cl)cc2)C(=O)O)CCCC1)OCCCCCCCCCCCCCCCCCC` (stereo partly drawn) [Example 6, [2,3-bis(octadecyloxy)propyl][3-[[3-[2-[2-[2-[2-[2-[2-[2-[2-[[3-[[2-[1-[[[(S)-1-carboxy-2-[4-(2,6-dichloro-benzoylamino)phenyl]ethyl]amino]carbonyl]cyclopentyl]ethyl]amino]-3-oxopropyl]oxy]ethoxy]ethoxy]ethoxy]ethoxy]ethoxy]ethoxy]ethoxy]ethoxy]-1-oxopropyl]amino]propyl]dimethylaminium bromide], the concentration for half-maximal inhibition (IC50) was 0.133 µM.

`CCCCCCCCCCCCCCCCCCCCOCC(C[N+](C)(C)CCCNC(=O)CCOCCOCCOCCOCCOCCOCCOCCOCCOCCC(=O)NCCC1(C(=O)N[C@@H](Cc2ccc(NC(=O)c3c(Cl)cccc3Cl)cc2)C(=O)O)CCCC1)OCCCCCCCCCCCCCCCCCCCC` (stereo partly drawn) [Example 7, [2,3-bis(icosanyloxy)propyl][3-[[3-[2-[2-[2-[2-[2-[2-[2-[2-[[3-[[2-[1-[[[(S)-1-carboxy-2-[4-(2,6-dichloro-benzoylamino)phenyl]ethyl]amino]carbonyl]cyclopentyl]ethyl]amino]-3-oxopropyl]oxy]ethoxy]ethoxy]ethoxy]ethoxy]ethoxy]ethoxy]ethoxy]ethoxy]-1-oxopropyl]amino]propyl]dimethylaminium bromide]: the IC50 is 0.089 µM.

With `CCCCCCCCCCCCCCCCCCCCOCC(CN(C)CCCNC(=O)CCOCCOCCOCCOCCOCCOCCOCCOCCOCCC(=O)NCCC1(C(=O)N[C@@H](Cc2ccc(NC(=O)c3c(Cl)cccc3Cl)cc2)C(=O)O)CCCC1)OCCCCCCCCCCCCCCCCCCCC` (stereo partly drawn) [Example 8, (S)-Alpha-[[[1-[2-[[3-[2-[2-[2-[2-[2-[2-[2-[2-[[3-[[3-[[2,3-bis(icosanyloxy)propyl]methylamino]propyl]amino]-3-oxopropyl]oxy]ethoxy]ethoxy]ethoxy]ethoxy]ethoxy]ethoxy]ethoxy]ethoxy]-1-oxoproyl]amino]ethyl]cyclopentyl]carbonyl]amino]-4-(2,6-dichlorobenzoylamino)benzenepropanoic acid], the half-maximal inhibitory concentration (IC50) came out at 1 µM.

For another assay, the system named is KIF11 mRNA. In words: KIF11 mRNA knockdown in MV4-11 cells by LNP-formulated KIF11 siRNA (relative to 18S ribosomal RNA). To be noted: added with no formulation as a control. It counts as cell-based, human. On the procedure:
FIG. 1. Bar graph illustrating KIF11 mRNA knockdown in MV4-11 cells (relative to 18S ribosomal RNA as a control) with various LNP formulations containing KIF11 siRNA (formulation nos. 54F, 54I, 54L, and 54O).
The human cancer cell line MV4-11 was maintained in media supplemented with 10% heat-inactivated Fetal Bovine Serum (HI-FBS; Gibco/BRL, Gaithersburg, Md.) and 2 mM L-glutamine (Gibco/BRL).
MV4-11 suspension cells in 1 ml of culturing medium were seeded in 24-well plates 24 h before transfection and RNA quantification targeting siRNA were formulated in LNPs and directly added to the medium for transfection. Cells were then collected for RNA quantification.
Sample collection and mRNA purification for in vitro studies were performed as follows. MV4-11 cells were lysed directly on the plate with RNA lysis buffer (Qiagen). Suspension cells were collected into tubes and spun down at 2,000 rpm for 1 min, then the cell pellets were lysed with RNA lysis buffer (Qiagen). […]
Total RNA from all collected samples was purified using Qiagen RNeasy Kit following the manufacturer's protocol. Relative quantification of target mRNA and 18S ribosomal RNA gene expression was carried out with cDNA Reverse Transcription Reagents from Applied Biosystems followed by Taqman Gene Expression Assays (Applied Biosystems) using the manufacturer's protocol. […]
Take `Cc1cccc(Cl)c1C(=O)N[C@@H](Cc1ccc(NC(=O)c2c(Cl)cccc2Cl)cc1)C(=O)O` [Example 27, (S)-2-(2-Chloro-6-methyl-benzoylamino)-3-[4-(2,6-dichloro-benzoylamino)-phenyl]-propionic acid]: the “knockdown of KIF11 expression” value is reported as “no knockdown”.
